Measured values from patent US20260308102A1, “18F-FLUORINATED FATTY ACIDS AND USES THEREOF” (Ratio Therapeutics, Inc., priority 2022, published 2026).
Entries after “also recorded” stand apart in the source; their conditions may differ. Values belong to the molecule of their own block, whether it stands above or below them.

Tests used:
[1] = Dynamic PET imaging (60 min) of butyrate analogues (Example 1); type: in vivo, wild type mice; settings: for in vivo behavior / biodistribution, comparison of isomers: 4-[^18F]FB vs 2-[^18F]FB
Description: FIG. 10 is a series of dynamic μPET/CT images depicting the biodistribution of 2-[^18F]FB and 4-[^18F]FB in wild type mice. Stable biodistribution was achieved after 45 minutes p.i.
Animals were anesthetized under 3% isoflurane in 02. […] Animals were allowed to recover from anesthesia and were carefully observed before moving them back to the holding facility for decay. Data was reconstructed as five 12-minute frames and as twelve 5-minute frames for analysis.

[2] = Static μPET/CT imaging at 45 min p.i. of short chain 18F-fatty acids and esters (Example 1)
Description: FIG. 1 is a series of Static Sagital and Coronal Maximum Intensity Projections (MIPs) μPET/CT images obtained at 45 minutes p.i. for the compounds studied (excluding palmitate) in normally fed animals. Imaging with ethyl-protected intermediates are also shown (e-).
Wild type immunocompetent animals were used, both for imaging and biodistribution experiments.
The activity was administered to the awake animals (n=2) via tail-vein injection (9.25-18.5 MBq, or 250-500 μCi) and placed back into their cages. At 35 minutes post injection (p.i.), animals were place in an acrylic enclosure under 4% isoflurane anesthesia in O2 for initial knockdown, then reduced to 2.5%. Once asleep, animals were placed in the imaging holder and a 5-minute CT was followed by a 15-minute static PET (approx. 45-60 min p.i., or 10-15 min after completion of anesthesia). As before, animals were allowed to recover from the anesthesia before returning to the holding facility for decay. When warranted, animals were studied with regular feeding and fasting for 6-12 hours to evaluate any difference in biodistribution.

[3] = Static μPET/CT imaging at 45 min p.i. of medium and long chain 18F-fatty acids (Example 2); settings: for brain uptake: includes earlier short chain data; for defluorination (bone uptake) / metabolic rate: static PET
Description: All animal experiments were approved by the Albert Einstein College of Medicine IACUC. Wild type immunocompetent animals were used for imaging. Feeding and water conditions were maintained throughout the study. Animals were never fasted.
The agent was administered to awake animals via tail-vein injection (9.25-18.5 MBq, or 250-500 μCi, n=2) and placed back into their cages. At 40 minutes post injection (henceforth p.i.), animals were place in an acrylic enclosure under 4% isoflurane anesthesia in O2 for initial knockdown, then reduced to 2.5%. Once asleep, animals were placed in the imaging holder and a 5-minute CT followed by a 15-minute static PET were performed (Approx. 45-60 min p.i.). As before, animals were allowed to recover from the anesthesia before returning to the holding facility for radiotracer decay. Images were analyzed by drawing regions of interest (ROIs) and quantifying the amount of tracer present as percent of injected activity per cubic centimeter (% IA/cc). Blood, urinary bladder and gut activity were determined by computer drawing of 2 mm diameter ROI spheres in the left cardiac ventricle, the urinary bladder and the areas of specific gut uptake, respectively. Brain, liver and kidney ROIs were drawn CT-aided and the radioactive contents were later quantified.

MCT1 [4] = settings: in vitro, Van Hée et al.; cited from earlier work
[5] = tested on: monocarboxylate transporter (MCT); test: PET imaging of 2-[^18F]FP with lactate displacement and MCT inhibition by AZD-3965 co-injection; type: in vivo, wild type mice
Text: FIG. 2 is a graph depicting PET-derived quantification of brain and pancreatic (“gut”) uptake of 2-[^18F]FP and 2-(L)-[^18F]FP under different conditions (n=2).
FIG. 12 is a collection of dynamic μPET/CT images that compare different imaging conditions including blocking with the MCT1 blocker AZD3965.
Further experiments to test the possibility of using 2-[^18F]FP and 2-(L)-[^18F]FP as a lactate surrogate, including co-injection with (L)Lactate, (D)Lactate, and AZD-3965 to produce displacement and monocarboxylate transporter (MCT) inhibition (respectively) were conducted and results can be observed in FIG. 2. The corresponding μPET/CT images can be found in the FIG. 12.
The unique characteristics of 2-[^18F]FP open many possibilities to study cancers and brain/CNS function and metabolism. As with 2-[^18F]FB the enantiomers have not been separated for either production or quality control. However, parametric production of 2-(L)-[^18F]FP was possible since the ethyl(2R)-2-{[(4-methylphenyl) sulfonyl]oxy}propanoate is commercially available. This compound's ability to resemble (L)-lactate has been contested in vitro, with confounding in vivo results. For comparison we co-injected 2-[^18F]FP separately with 0.5 and 5 mg/kg (L) and (D) sodium lactate (an increase of 5 and 50% respectively in homeostatic lactate circulation), and 5 mg/Kg of AZD-3965, an monocarboxylate transporter (MCT) 1 and 2 inhibitor (Ki(MCT1)=3 nM, Ki(MCT2)=20 nM) in the same animal model.

[6] = Stability in HCl and saline solution; type: physicochemical; settings: for stability in HCl: HCl lower than 3 M
MCT1 [7] = settings: role: inhibitor; cited from earlier work
MCT2 = settings: role: inhibitor; cited from earlier work
[8] = cancer patients; cited from earlier work
[9] = co-injection with AZD-3965, 5 mg/Kg

SMILES: CCC([18F])C(=O)O (racemic) [2-[^18F]FB, 2-[^18F]Fluorobutyrate]
- brain/central nervous system (CNS) uptake [1]: the highest of the studied series
- gut uptake [1]: seemingly specific gut uptake
- in vivo behavior / biodistribution, comparison of isomers [1]: behaved very differently in vivo
- brain uptake, fasted vs fed ([2]; fasted vs fed, 45 min p.i.): small reduction in brain uptake (not significant)
- circulatory activity, fasted vs fed ([2]; fasted vs fed, 45 min p.i.): slight increase in circulatory activity
- gut uptake, fasted vs fed ([2]; fasted vs fed, 45 min p.i.): modest reduction; also recorded: reduction in the aforementioned specifically located gut uptake
- metabolic activity / defluorination, fasted vs fed ([2]; fasted vs fed, 45 min p.i.): reduced defluorination; also recorded: slight decrease in metabolic rate
- brain/CNS uptake ([2]; static PET, 45 min p.i., fed): marked brain uptake
- brain uptake with or without isoflurane anesthesia and fasting ([2]; with or without isoflurane, with or without fasting): remained unchanged with or without isoflurane anesthesia, and with or without fasting
- brain uptake ([3]; 45 min p.i.): High brain uptake
- brain uptake ([3]; 45 min p.i., listed as 2-[^18F]Fluorobutyrate): peaking

- specific abdominal uptake ([3]; 45 min p.i.): not found
- defluorination (bone uptake) ([3]; 45 min p.i.): Almost no defluorination
SMILES: CCCCC([18F])C(=O)O (racemic) [2-[^18F]FC, 2-Fluorocaproate]
- brain uptake ([3]; 45 min p.i.): High brain uptake; also recorded: the longest substrate absorbed by the brain

SMILES: CCCCCCC([18F])C(=O)O (racemic) [2-[^18F]FCy, 2-Fluorocaprylate]
- specific abdominal uptake ([3]; 45 min p.i.): not found
- brain uptake ([3]; 45 min p.i.): significantly reduced
- defluorination (bone uptake) ([3]; 45 min p.i.): Almost no defluorination

- specific abdominal uptake ([3]; 45 min p.i.): not found
- defluorination (bone uptake) ([3]; 45 min p.i.): small bone uptake
SMILES: CCCCCC([18F])C(=O)O (racemic) [2-[^18F]FE, 2-Fluoroenanthate]
- brain uptake ([3]; 45 min p.i.): significantly reduced; also recorded: all brain uptake is stopped; also recorded: stops abruptly

SMILES: CC([18F])C(=O)O (racemic) [2-[^18F]FP, 2-[^18F]Fluoropropionate]
- MCT1-dependent accumulation (MCT1 [4]): does not accumulate in a MCT1-dependent manner
- apparent stability in vivo ([2]; no metabolite analysis performed): seems to be stable in vivo in the studied period; also recorded: high apparent probe stability in vivo
- blood circulation time ([2]; static PET, 45 min p.i.): decreased circulation times
- defluorination in vivo ([2]; static PET, 45 min p.i.): only minor defluorination was observed; also recorded: no defluorination was observed
- brain/CNS uptake ([2]; static PET, 45 min p.i., fed): maintained CNS uptake; also recorded: specific uptake in brain and the central nervous system; also recorded: marked brain uptake
- abdominal uptake under different imaging conditions ([5]; different imaging conditions (fasting, lactate)): remained stable and not affected by the different imaging conditions
- average brain uptake, fasting or co-injection with (L)-lactate ([5]; fasting, co-injection with 5 mg/kg (L)-lactate, differences not significant): slight increase in average brain uptake
- brain uptake ([3]; 45 min p.i.): High brain uptake

- blood content ([3]; 45 min p.i.): reduced
- liver uptake ([3]; 45 min p.i.): predominant liver uptake
- specific abdominal uptake ([3]; 45 min p.i.): not found
- brain uptake ([3]; 45 min p.i.): significantly reduced
- defluorination (bone uptake) ([3]; 45 min p.i.): slightly higher defluorination rate
SMILES: CCCCCCCCCCCCCCC([18F])C(=O)O (racemic) [2-[^18F]FPalm, 2-[^18F]Fluorohexadecanoic acid]

SMILES: CCCC([18F])C(=O)O (racemic) [2-[^18F]FV, 2-Fluorovalerate]
- specific abdominal uptake ([3]; 45 min p.i.): evident
- brain uptake ([3]; 45 min p.i.): High brain uptake
- defluorination (bone uptake) ([3]; 45 min p.i.): small bone uptake

- blood circulation time ([2]; static PET, 45 min p.i.): long circulation time
- defluorination in vivo ([2]; static PET, 45 min p.i.): without defluorination
- general biodistribution ([2]; static PET, 45 min p.i.): non-specificity
SMILES: CC(C)([18F])C(=O)O [2-[^18F]FIB, 2-[^18F]Fluoroisobutyrate]
- brain/CNS uptake ([2]; static PET, 45 min p.i., fed): marked brain uptake in contrast to their branched congener

- stability in HCl [6]: not stable
- stability in saline solution [6]: decomposed immediately
SMILES: CC([18F])CC(=O)O (stereo not drawn) [3-[^18F]FB, 3-[^18F]Fluorobutyrate]

- stability in HCl [6]: not stable
- stability in saline solution [6]: decomposed immediately
SMILES: O=C(O)CC[18F] [3-[^18F]FP, 3-[^18F]Fluoropropionate]

SMILES: O=C(O)CCC[18F] [4-[^18F]FB, 4-[^18F]Fluorobutyrate]
- in vivo behavior / biodistribution, comparison of isomers [1]: behaved very differently in vivo
- circulatory activity, fasted vs fed ([2]; fasted vs fed, 45 min p.i.): slight increase in circulatory activity
- metabolic activity / defluorination, fasted vs fed ([2]; fasted vs fed, 45 min p.i.): reduced defluorination; also recorded: reduction in metabolic activity was especially noticeable; also recorded: slight decrease in metabolic rate

SMILES: O=C(O)CCCC[18F] [5-[^18F]FV, 5-Fluorovalerate]
- metabolic rate ([3]; 45 min p.i.): much faster metabolic rate than that of 6-[^18F]FC and 8-[^18F]FCy

SMILES: O=C(O)CCCCCC[18F] [7-[^18F]FE, 7-Fluoroenanthate]
- metabolic rate ([3]; 45 min p.i.): much faster metabolic rate than that of 6-[^18F]FC and 8-[^18F]FCy

SMILES: O=C(O)CCCCCCCCCCCCCCC[18F] [16-[^18F]FPalm, 16-[^18F]Fluorohexadecanoic acid]
- bright spot in liver / autopsy finding ([3]; one animal): a bright spot was found in one the animal's liver, but later autopsy did not revealed any interesting finding
- defluorination (bone uptake) ([3]; 45 min p.i.): faster for the 16-substituted compound, although much slower in contrast to its MCFA n-substituted congeners

- blocking of gut uptake by AZD-3965 ([5]; co-injection with AZD-3965): selectively blocked
SMILES: Cc1[nH]nc(C(F)(F)F)c1Cc1sc2c(c1C(=O)N1C[C@](C)(O)CO1)c(=O)n(C)c(=O)n2C(C)C [AZD-3965]
- Ki (MCT1 [7]): 3 nM
- Ki (MCT2): 20 nM
- blocking of uptake / biodistribution by AZD-3965 [5, 9]: blocked the overall biodistribution of 2-[^18F]FP; also recorded: significant blocking of fatty acid uptake
- excretion with AZD-3965 co-injection [5, 9]: almost complete excretion; also recorded: increased excretion

SMILES: CC(=O)O [[^11C]Acetate]
- uptake in comparison with [^18F]FDG [8]: mutually exclusive

SMILES: O=C(O)C[18F] [[^18F]FA, [^18F]Fluoroacetate]
- blood circulation time ([2]; static PET, 45 min p.i.): decreased circulation times
- brain/CNS uptake ([2]; static PET, 45 min p.i., fed): maintained CNS uptake
- specific gut uptake ([2]; static PET, 45 min p.i., fed): highest uptake
- brain uptake ([3]; 45 min p.i.): High brain uptake

- blood circulation time ([2]; static PET, 45 min p.i.): slightly longer blood circulation
- general biodistribution ([2]; static PET, 45 min p.i.): almost identical biodistribution
SMILES: CCOC(=O)C([18F])CC (stereo not drawn) [e-2-[^18F]FB, Ethyl 2-[^18F]Fluorobutyrate]

- stability in HCl [6]: not stable
- stability in saline solution [6]: decomposed immediately
SMILES: CCOC(=O)CC(C)[18F] (stereo not drawn) [e-3-[^18F]FB, Ethyl 3-[^18F]Fluorobutyrate]

SMILES: CCOC(=O)CC[18F] [e-3-[^18F]FP, Ethyl 3-[^18F]Fluoropropionate]
- stability in HCl [6]: not stable
- stability in saline solution [6]: decomposed immediately

SMILES: CCOC(=O)CCC[18F] [e-4-[^18F]FB, Ethyl 4-[^18F]Fluorobutyrate]
- blood circulation time ([2]; static PET, 45 min p.i.): slightly longer blood circulation
- general biodistribution ([2]; static PET, 45 min p.i.): almost identical biodistribution
